According to US9937198B2, “Multi-functional composition and preparation method and application thereof” (Suzhou Sciscape Bio-Pharmaceutical Technology Co., Ltd., priority 2013, dated 2018):

Key:
Male ICR mice = assay: In vivo absorption: blood glucose in fasted normal mice after intragastric administration; settings: for Blood glucose level after administration: 13.3 mL/kg intragastric; for Blood glucose level before administration: baseline, mice fasted 12 h; for blood glucose level compared to the blank control group: before or after administration, normal mice
Protocol: Male ICR mice, 8 weeks old, 20±2 g in body weight, were purchased from Beijing HFK Bioscience Co., Ltd.
The composition used in the present experiment example was the solution of Composition 1. In particular, 15 g of trehalose and 3 mg of validamycin were picked and then dissolved in 100 mL of sterile water for medical use to provide the solution of Composition 1 which was kept for future use.
After normally fed for 3 days, the mice fasted for 12 h with water sufficiently supplied. Then, they were randomly divided into 4 groups depending on the blood glucose, i.e., a blank control group, an administration group, and negative control group 1 and negative control group 2. The mice in the administration group were intragastrically given the solution of Composition 1 prepared in this experimental example at a dose of 13.3 mL/kg body weight while the mice in the blank control group were intragastrically given sterile water for medical use at a dose of 13.3 mL/kg body weight. In addition, the mice in negative control group 1 and 2 were respectively intragastrically given the solution of trehalose (0.15 g/mL) and the solution of validamycin (0.3 mg/mL) at the same dose of 13.3 mL/kg body weight. The blood glucose levels before administration and 10 min, 25 min, 40 min and 60 min post administration were measured respectively, and the results were shown in Table 2.

normal mice [1] = assay: Loaded swimming in normal mice; assay type: in vivo; settings: 2 g weight on tail, 20 min after 13.3 mL/kg intragastric
Excerpt: Female ICR mice, 8 weeks old and 20±2 g in body weight, were purchased from Beijing HFK Bioscience Co., Ltd.
The solutions of Composition 1 to 7 prepared in this example were used.
After the mice were fed normally for 3 days, they were randomly divided into 11 groups by body weight, i.e., a blank control group, administration groups 1 to 7 and negative control groups 1 to 3. The mice in administration groups 1 to 7 were intragastrically administered with the solution of Compositions 1 to 7 respectively a dose of 13.3 mL/kg body weight while the mice in the blank control group were intragastrically given sterile water for medical use at a dose of 13.3 mL/kg body weight. The mice in negative control groups 1 to 3 were intragastrically given the solution of trehalose (0.15 g/mL), the solution of validamycin (0.3 mg/mL) and the solution of algal polysaccharides (0.15 g/mL) respectively at a dose of 13.3 mL/kg body weight. Twenty minutes after the administration, a weight of 2 g was fixed to the tail of each mouse and the mice were put into a pool to swim with load. The bath temperature was 25±2° C., and the depth was more than 30 cm. The survival time in the loaded swimming was recorded (when all parts of a mouse were under water for 10 s, the mouse was considered to be unable to rise to the surface).

normal mice [2] = assay: Enterocinesia in normal mice (carbon powder movement in small intestine); assay type: in vivo; settings: 13.3 mL/kg intragastric; for Movement distance of carbon powder: carbon powder 20 to 30 min later, killed 15 to 20 min after; for Movement distance of carbon powder/full length of small intestine: normal mice
Protocol: Male ICR mice, 8 weeks old and 20±2 g in body weight, were purchased from Beijing HFK Bioscience Co., Ltd.
Solutions of Compositions 1 to 7 were used in the experiment.
A suspension of carbon powder of 0.1 g/mL was also used. In particular, 1 g of carbon powder was added to and then suspended evenly in 10 mL of normal saline.
After the mice were fed normally for 3 days, they were given no food but water for 18-24 h. By the body weight, the mice were randomly divided into 11 groups, i.e., a blank control group, administration groups 1 to 7 and negative control groups 1 to 3. The mice in administration groups 1 to 7 were respectively intragastrically administered with the solutions of Compositions 1 to 7 at a dose of 13.3 mL/kg body weight while the mice in the blank control group were intragastrically given sterile water for medical use at a dose of 13.3 mL/kg body weight. The mice in negative control groups 1 to 3 were respectively intragastrically administered with the solution of trehalose (0.15 g/mL), the solution of validamycin (0.3 mg/mL) and the solution of algal polysaccharide (0.15 g/ml) at a dose of 13.3 mL/kg body weight. At 20 to 30 min post administration, all mice were intragastrically given the suspension of carbon powder at a dose of 0.2 mL/10 g body weight. At 15 to 20 min post the administration of the carbon powder suspension, the mice were killed by cervical vertebrae dislocation and then were quickly dissected to separate the small intestines. The movement distance of the carbon powder (the distance measured from the carbon powder at the forefront to the end of the duodenum closer to heart) and the full length of the small intestine were measured.

human skin = assay: Determination of moisture content in human skin; assay type: in vivo
Excerpt: 1. Subjects and Materials
One hundred and ten people were selected from the volunteers who participating in this test. They were females at the age of 30 to 55 with skin moisture content below 12%.
Solutions of Composition 1 to 7 prepared in this example were used except that the sterile water for medical use was replaced with warm water.
By skin moisture content, the subjects were randomly divided into 11 groups, i.e., a blank control group, administration groups 1 to 7 and negative control groups 1 to 3. The subjects in administration groups 1 to 7 respectively took 200 mL of the solution of Compositions 1 to 7 twice a day at 9 am and 9 pm while the subjects in the blank control group took 200 mL of warm water at the same time. In addition, the subjects in negative control groups 1 to 3 respectively took 200 mL of the solution of trehalose (0.15 g/mL), 200 mL of the solution of validamycin (0.3 mg/mL) and 200 mL of the solution of algal polysaccharides (0.15 g/mL). The administration lasted for 30 days. Skin moisture content was determined before administration and after administration. The determination was conducted in a spacious and well ventilated examination room. When the subjects were calm, the location to be determined was cleaned with sterile cotton ball soaked with distilled water. Fifteen minutes after the location was wiped dry, the skin moisture content was determined by skin moisture tester under the trademark of “KAKUSAN”.

[3] = after administration, 200 mL twice a day for 30 days

Row | Structure (SMILES) | Blood glucose level after administration (Male ICR mice; 10 min) [mmol/L] | Blood glucose level after administration (Male ICR mice; 25 min) [mmol/L] | Blood glucose level after administration (Male ICR mice; 40 min) [mmol/L] | Blood glucose level after administration (Male ICR mice; 60 min) [mmol/L] | Blood glucose level before administration (Male ICR mice) [mmol/L] | blood glucose level compared to the blank control group (Male ICR mice) | Survival time (normal mice [1]) [min] | Movement distance of carbon powder (normal mice [2]) [cm] | Movement distance of carbon powder/full length of small intestine (normal mice [2]) [%] | Skin moisture content (human skin; [3]) [%] | Skin moisture content (human skin; before administration) [%]
1 | OCC1=C[C@H](N[C@H]2C[C@H](CO)[C@@H](O[C@@H]3O[C@H](CO)[C@@H](O)[C@H](O)[C@H]3O)[C@H](O)[C@H]2O)[C@H](O)[C@@H](O)[C@@H]1O [validamycin] | 5.3 ± 0.45 | 5.7 ± 0.56 | 5.2 ± 0.23 | 5.3 ± 0.20 | 5.2 ± 0.44 | no significant difference | 12.54 ± 1.08 | 29.3 ± 2.34 | 66.3 ± 6.57 | 8.35 ± 0.47 | 8.21 ± 0.98
2 | OC[C@H]1O[C@H](O[C@H]2O[C@H](CO)[C@@H](O)[C@H](O)[C@H]2O)[C@H](O)[C@@H](O)[C@@H]1O [trehalose] | 6.4 ± 0.40 | 9.5 ± 1.00 | 11.0 ± 0.30 | 9.5 ± 1.12 | 4.9 ± 0.53 | increased significantly | 13.45 ± 2.54 | 33.6 ± 3.40 | 71.9 ± 8.20 | 8.52 ± 0.55 | 8.55 ± 0.68
